Activity calls are given as the source filed them.
Columns and labels:
3T3-L1 [1] = experiment: Activation of AMPK in mouse 3T3-L1 mature adipocytes assessed as increase in AMPK phosphorylation at Thr172 residue incubated for 24 hrs by Western blot analysis; type: cell-based; details: filed as activator, dose 1-5 µM
3T3-L1 [2] = experiment: Anti-adipogenic activity in MDI-cocktail differentiated mouse 3T3-L1 pre-adipocyte cells assessed as reduction in FABP4 protein expression at 5 uM measured for 3 to 7 days by immunoblotting analysis; type: functional, cell-based; details: time 3-7 day
3T3-L1 [3] = experiment: Anti-adipogenic activity in MDI-cocktail differentiated mouse 3T3-L1 pre-adipocyte cells assessed as reduction in adipogenic differentiation at 5 uM measured after 3 to 7 days by Oil Red O staining based microscopic analysis; type: functional, cell-based; details: time 3-7 day
3T3-L1 [4] = experiment: Induction of basal respiration during early phase in MDI-cocktail differentiated mouse 3T3-L1 pre-adipocyte cells 5 uM incubated for 72 hrs by Seahorse XFp flux analyzer; type: functional, cell-based
3T3-L1 [5] = experiment: Inhibition of MDI-cocktail induced adipogenic differentiation in mouse 3T3-L1 pre-adipocyte cells assessed as reduction in C/EBPalpha protein expression at 0.5 to 5 uM by Western blot analysis; type: functional, cell-based; details: dose 0.5-5 µM
3T3-L1 [6] = experiment: Cytotoxicity against mouse 3T3-L1 pre-adipocyte cells assessed as reduction in cell viability upto 50 uM incubated for 48 hrs by MTT assay; type: toxicity, cell-based; details: 3t3-l1, 48 h
3T3-L1 [7] = experiment: Induction of maximum respiration during early phase in MDI-cocktail differentiated mouse 3T3-L1 pre-adipocyte cells 5 uM incubated for 72 hrs by Seahorse XFp flux analyzer; type: functional, cell-based
3T3-L1 [8] = experiment: Anti-adipogenic activity in MDI-cocktail differentiated mouse 3T3-L1 pre-adipocyte cells assessed as reduction in C/EBPalpha protein expression at 5 uM measured for 3 to 7 days by immunoblotting analysis; type: functional, cell-based; details: time 3-7 day
Syrian golden hamster [9] = experiment: Anti-obesity activity in high-fat diet induced Syrian golden hamster model assessed as rescue of normal eWAT weight at 25 to 50 mg/kg, po administered for 7 days; type: functional, organism-based; details: Mesocricetus auratus, dose 25-50 mg/kg, time 7.0 day
3T3-L1 [10] = experiment: Induction of mitochondrial membrane potential in mouse 3T3-L1 mature adipocytes assessed as increase in TMRE fluorescence at 1 to 5 uM incubated for 24 hrs by TMRE staining based fluorescence microscopic analysis; type: functional, cell-based; details: dose 1-5 µM
Syrian golden hamster [11] = experiment: Anti-obesity activity in high-fat diet induced Syrian golden hamster model assessed as reduction in lipid accumulation in liver cells at 50 mg/kg, po administered for 7 days by H and E staining based inverted microscopic analysis; type: functional, organism-based; details: Mesocricetus auratus, time 7.0 day
Syrian golden hamster [12] = experiment: Anti-obesity activity in high-fat diet induced Syrian golden hamster model assessed as reduction in adipose hypertrophy at 50 mg/kg, po administered for 7 days by H and E staining based inverted microscopic analysis; type: functional, organism-based; details: Mesocricetus auratus, time 7.0 day
3T3-L1 [13] = experiment: Anti-adipogenic activity in MDI-cocktail differentiated mouse 3T3-L1 pre-adipocyte cells assessed as reduction in adipogenic differentiation at 5 uM measured after 0 to 3 days by Oil Red O staining based microscopic analysis; type: functional, cell-based; details: time 0-3 day
3T3-L1 [14] = experiment: Induction of cell cycle arrest in MDI-cocktail differentiated mouse 3T3-L1 pre-adipocyte cells assessed as reduction in cyclin D3 protein expression at 5 uM measured after 16 to 24 hrs by immunoblotting analysis; type: functional, cell-based; details: time 16-24 hrs
3T3-L1 [15] = experiment: Cytotoxicity against mouse 3T3-L1 pre-adipocyte cells assessed as reduction in cell viability at 20 uM incubated for 48 hrs by MTT assay; type: toxicity, cell-based; details: 3t3-l1, 48 h
C3H 10T1/2 = experiment: Anti-adipogenic activity in MDI-cocktail differentiated mouse C3H 10T1/2 cells assessed as reduction in adipogenic differentiation at 5 uM measured after 3 to 7 days by Oil Red O staining based microscopic analysis; type: functional, cell-based; details: time 3-7 day
3T3-L1 [16] = experiment: Anti-adipogenic activity in MDI-cocktail differentiated mouse 3T3-L1 pre-adipocyte cells assessed as inhibition of adipogenesis by Oil Red O staining based microscopic analysis; type: functional, cell-based
Syrian golden hamster [17] = experiment: Anti-obesity activity in high-fat diet induced Syrian golden hamster model assessed as reduction in weight gain at 50 mg/kg, po administered for 7 days and measured daily; type: functional, organism-based; details: Mesocricetus auratus, time 7.0 day
3T3-L1 [18] = experiment: Inhibition of MDI-cocktail induced adipogenic differentiation in mouse 3T3-L1 pre-adipocyte cells assessed as reduction in FABP4 gene expression at 5 uM by qRT-PCR analysis; type: functional, cell-based
3T3-L1 [19] = experiment: Upregulation of CIII-UQCRC2 protein expression in mouse 3T3-L1 mature adipocytes at 1 to 5 uM incubated for 24 hrs by Western blot analysis; type: functional, cell-based; details: dose 1-5 µM
3T3-L1 [20] = experiment: Induction of cell cycle arrest in MDI-cocktail differentiated mouse 3T3-L1 pre-adipocyte cells assessed as accumulation of cells at S phase at 3 to 5 uM incubated for 24 hrs by propidium iodide staining based flow cytometry analysis; type: functional; details: dose 3-5 µM
3T3-L1 [21] = experiment: Upregulation of CII-SDHB protein expression in mouse 3T3-L1 mature adipocytes at 1 to 5 uM incubated for 24 hrs by Western blot analysis; type: functional, cell-based; details: dose 1-5 µM
3T3-L1 [22] = experiment: Anti-adipogenic activity in MDI-cocktail differentiated mouse 3T3-L1 pre-adipocyte cells assessed as reduction in FASN protein expression at 5 uM measured for 3 to 7 days by immunoblotting analysis; type: functional, cell-based; details: time 3-7 day
3T3-L1 [23] = experiment: Inhibition of MDI-cocktail induced adipogenic differentiation in mouse 3T3-L1 pre-adipocyte cells assessed as reduction in PPARgamma protein expression at 0.5 to 5 uM by Western blot analysis; type: functional, cell-based; details: dose 0.5-5 µM
3T3-L1 [24] = experiment: Inhibition of MDI-cocktail induced adipogenic differentiation in mouse 3T3-L1 pre-adipocyte cells assessed as increase in ACC phosphorylation at Ser79 residue by Western blot analysis; type: functional, cell-based; details: dose 0.5-5 µM
3T3-L1 [25] = experiment: Induction of cell cycle arrest in MDI-cocktail differentiated mouse 3T3-L1 pre-adipocyte cells assessed as accumulation of cells at G1 phase at 3 to 5 uM incubated for 16 hrs by propidium iodide staining based flow cytometry analysis; type: functional; details: dose 3-5 µM
Syrian golden hamster [26] = experiment: Hepatoprotective activity in high-fat diet induced Syrian golden hamster model assessed as reduction in serum AST level at 25 to 50 mg/kg, po administered for 7 days; type: functional, organism-based; details: Mesocricetus auratus, dose 25-50 mg/kg, time 7.0 day
3T3-L1 [27] = experiment: Inhibition of MDI-cocktail induced adipogenic differentiation in mouse 3T3-L1 pre-adipocyte cells assessed as increase in AMPK phosphorylation at Thr172 residue by Western blot analysis; type: functional, cell-based; details: dose 0.5-5 µM
Syrian golden hamster [28] = experiment: Hepatoprotective activity in high-fat diet induced Syrian golden hamster model assessed as reduction in serum ALT level at 25 to 50 mg/kg, po administered for 7 days; type: functional, organism-based; details: Mesocricetus auratus, dose 25-50 mg/kg, time 7.0 day
3T3-L1 [29] = experiment: Induction of cell cycle arrest in MDI-cocktail differentiated mouse 3T3-L1 pre-adipocyte cells assessed as reduction in CDK2 protein expression at 5 uM measured after 16 to 24 hrs by immunoblotting analysis; type: functional, cell-based; details: time 16-24 hrs
3T3-L1 [30] = experiment: Anti-adipogenic activity in MDI-cocktail differentiated mouse 3T3-L1 pre-adipocyte cells assessed as reduction in adipogenic differentiation at 5 uM measured after 5 to 7 days by Oil Red O staining based microscopic analysis; type: functional, cell-based; details: time 5-7 day
3T3-L1 [31] = experiment: Activation of AMPK pathway in MDI-cocktail differentiated mouse 3T3-L1 pre-adipocyte cells assessed as reversal of 6-(4-(2-(piperidin-1-yl)ethoxy)phenyl)-3-(pyridin-4yl)pyrazolo[1,5-a]pyrimidine induced AMPK inhibition at 5 uM incubated for 72 hrs by immunoblotting analysis; type: cell-based; details: filed as activator

Cc1ccc(-c2cnc(-c3ccc[n+](Cc4cccc(C)c4)c3)o2)cc1.[Br-]
Non-Toxic: Activity (3T3-L1 [6]) | Activity (3T3-L1 [15])
active: Activity (3T3-L1 [1]) Dose-Dependent Effect | Activity (3T3-L1 [2]) | Activity (3T3-L1 [3]) | Activity (3T3-L1 [4]) | inhibition (3T3-L1 [5]) | Activity (3T3-L1 [7]) | Activity (3T3-L1 [8]) | Activity (Syrian golden hamster [9]) | Activity (3T3-L1 [10]) | Activity (Syrian golden hamster [11]) | Activity (Syrian golden hamster [12]) | Activity (3T3-L1 [13]) | Activity (3T3-L1 [14]) | Activity (C3H 10T1/2) | Activity (Syrian golden hamster [17]) | inhibition (3T3-L1 [18]) | Activity (3T3-L1 [19]) | Activity (3T3-L1 [20]) | Activity (3T3-L1 [21]) | Activity (3T3-L1 [22]) | inhibition (3T3-L1 [23]) | inhibition (3T3-L1 [24]) Dose-Dependent Effect | Activity (3T3-L1 [25]) | Activity (Syrian golden hamster [26]) | inhibition (3T3-L1 [27]) Dose-Dependent Effect | Activity (Syrian golden hamster [28]) | Activity (3T3-L1 [29]) | Activity (3T3-L1 [30]) | Activity (3T3-L1 [31])
390 nM: IC50 (3T3-L1 [16]; read-out: IC50) | IC50 (3T3-L1 [16]; read-out: pIC50 (converted))

Reference: ChEMBL document CHEMBL5634151, “Anti-adipogenic action of a novel oxazole derivative through activation of AMPK pathway” (Eur J Med Chem, 2023)
